According to patent publication US4318916A, “Antibiotic PS-5 and derivatives having β-lactamase inhibitory activity and production thereof” (Sanraku-Ocean Co., Ltd., priority 1977, dated 1982):
Converted amounts (≈) assume the structure as drawn. Where two headings read alike, the source gives them in different places.

Experiments:
[1] = system: Staphylococcus aureus Smith; experiment: Therapeutic activity of antibiotic PS-5 sodium salt in infected mice; assay type: in vivo; settings: mice infected with pathogenic Gram-positive bacteria
Source text: The therapeutic activity of the antibiotic PS-5 sodium salt was studied by treating mice intraperitoneally infected with 5×10^5 cells/mouse of Staphylococcus aureus Smith. Soon after the infection, an aqueous solution of the antibiotic PS-5 sodium salt was subcutaneously injected.

[2] = system: Proteus vulgaris P-5; experiment: Filter paper strip synergism test; assay type: cell-based; settings: Proteus vulgaris P-5 (beta-lactamase producer); crossed filter paper strips, 18 hours at 35° C.
Description: On an assay plate of nutrient agar seeded by a beta-lactam-resistant strain of Proteus vulgaris P-5 (beta-lactamase producer), two filter paper strips containing penicillin G or cephaloridine and two strips containing antibiotic PS-5 were applied to form a square where two strips of the […] antibiotic were contacted at one corner. The antimicrobial activity was read after incubation for 18 hours at 35° C. When suitable concentrations of penicillin G or cephaloridine and antibiotic PS-5 were chosen, the inhibition area was observed only at the corners where both antibiotic PS-5 and penicillin G or cephaloridine were present, but not at the corners where antibiotic PS-5, penicillin G or cephaloridine was solely present. […] That is, when two kinds of compounds were combined at concentrations that were low enough not to give an inhibition zone with a component alone, the large inhibition thus appearing with the combination was due to synergism.

[3] = system: male ddy mice; assay type: in vivo; settings: 500 mg/kg intraperitoneally
Description: An aqueous solution of the antibiotic PS-5 sodium salt was intraperitoneally administered to male ddy mice (Shizuoka) at the dose of 500 mg/kg.

[4] = system: Staphylococcus aureus Smith; experiment: In vivo activity of trityl ester in infected mice
Description: The in vivo activity of the tritylation product of the antibiotic PS-5 was measured in mice intraperitoneally infected with 5×10^3 cells/mouse of Staphylococcus aureus Smith. The trityl ester of the antibiotic PS-5 was subcutaneously injected just after infection.

[5] = system: Proteus mirabilis P-6; experiment: MIC by broth dilution (Table 13); assay type: cell-based; settings: P6, 20 h
Description: (§1) The MIC (minimum inhibitory concentration) values of the compound were determined on various pathogenic microorganisms including several resistant strains, utilizing the broth dilution method in BRAIN HEART INFUSION BROTH `Eiken` (EIKEN CHEMICAL CO., LTD.).
(§2) The results were read after incubation at 35° C. for 20 hours. The minimum inhibitory concentration (MIC) values means the lowest concentration unit of the tritylation product of the antibiotic PS-5 was no growth of the corresponding microorganism was observed under the above described conditions. As the control antibiotics,the solutions of ampicillin and cephaloridine were prepared in BRAIN HEART INFUSION BROTH `Eiken` (pH 7.0) at a concentration of 100 μg/ml and treated same as the test compound of the present invention.

[6] = system: Alcaligenes faecalis B-326; experiment: MIC by broth dilution (Table 13); assay type: cell-based; settings: B326, 20 h
Description: as §1, §2

[7] = system: Staphylococcus aureus FDA 209p; experiment: MIC by broth dilution (Table 13); assay type: cell-based; settings: FDA209P, 20 h
Description: as §1, §2

[8] = system: Staphylococcus aureus Smith; experiment: MIC by broth dilution (Table 13); assay type: cell-based; settings: 20 h
Description: as §1, §2

[9] = system: Streptococcus pyogenes NY-5; experiment: MIC by broth dilution (Table 13); assay type: cell-based; settings: NY5, 20 h
Description: as §1, §2

[10] = system: Enterobacter sp. E-8; experiment: MIC by broth dilution (Table 13); assay type: cell-based; settings: SP.E8, 20 h
Description: as §1, §2

[11] = system: Proteus rettgeri P-7; experiment: MIC by broth dilution (Table 13); assay type: cell-based; settings: Providencia rettgeri, P7, 20 h
Description: as §1, §2

[12] = system: Diplococcus pneumoniae Type III; experiment: MIC by broth dilution (Table 13); assay type: cell-based; settings: Streptococcus pneumoniae, 20 h
Description: as §1, §2

[13] = system: Proteus vulgaris P-5; experiment: MIC by broth dilution (Table 13); assay type: cell-based; settings: P5, 20 h
Description: as §1, §2

[14] = system: Escherichia coli K12; experiment: MIC by broth dilution (Table 13); assay type: cell-based; settings: 20 h
Description: as §1, §2

[15] = system: Klebsiella pneumoniae K-2; experiment: MIC by broth dilution (Table 13); assay type: cell-based; settings: K2, 20 h
Description: as §1, §2

[16] = system: Citrobacter freundii E-9; experiment: MIC by broth dilution (Table 13); assay type: cell-based; settings: E9, 20 h
Description: as §1, §2

[17] = system: Pseudomonas aeruginosa P-1; experiment: MIC by broth dilution (Table 13); assay type: cell-based; settings: P1, 20 h
Description: as §1, §2

[18] = system: Sarcina lutea S-19; experiment: MIC by broth dilution (Table 13); assay type: cell-based; settings: Micrococcus luteus, S19, 20 h
Description: as §1, §2

[19] = target: Beta-lactamase from Citrobacter freundii E-9 (Citrobacter freundii, UniProt P05193); experiment: Beta-lactamase inhibition, hydrolysis of cephaloridine (I50 CER); assay type: biochemical; settings: Citrobacter freundii E-9 beta-lactamase; cephaloridine substrate; 15 minutes preincubation at 30° C.
Description: The I50^CER value of hydrolysis of cephaloridine by beta-lactamasefor 10 minutes (from one minute to ten minutes after the incubation is started). The rate of hydrolysis of cephaloridine is measured by the decrease of optical density at […]. For routine inhibition assays, beta-lactamase of Citrobacter freundii E-9 and Proteus vulgaris P-5 were employed after purification by affinity chromatography with cephalexin-Sepharose 4B.
Buffer: 0.1 M phosphate buffer (Na-K phosphate) (pH 6.8)
Substrate: 0.05 micromole/ml in phosphate buffer
Beta-lactamase: The enzyme was diluted enough to give a fall of ca. 0.1 optical density unit per 10 minutes at 255 mμ in the absence of an inhibitor. (Apparatus: Hitachi Spectrophotometer UV-VIS 139, Hitachi, Ltd.).
(This can hold one control cuvette and three sample cuvettes. Four 1 cm quarz cuvettes (3 ml in volume) were employed. The temperature was maintained at 30° C. during the reaction). […]
After pre-incubation, the substrate solution (pre-warmed at 30° C.; 3.0 ml) was added and quickly mixed to start the reaction. […] The value of I50^CER (μg/ml) was determined by diluting the inhibitor untill the dilution gave 50% of the rate of hydrolysis of cephaloridine recorded in the no-inhibitor control for 10 minutes (from 1 minute to 11 minutes after the substrate was added).

Beta-lactamase from Citrobacter freundii E-9, sequence (P05193 21-381): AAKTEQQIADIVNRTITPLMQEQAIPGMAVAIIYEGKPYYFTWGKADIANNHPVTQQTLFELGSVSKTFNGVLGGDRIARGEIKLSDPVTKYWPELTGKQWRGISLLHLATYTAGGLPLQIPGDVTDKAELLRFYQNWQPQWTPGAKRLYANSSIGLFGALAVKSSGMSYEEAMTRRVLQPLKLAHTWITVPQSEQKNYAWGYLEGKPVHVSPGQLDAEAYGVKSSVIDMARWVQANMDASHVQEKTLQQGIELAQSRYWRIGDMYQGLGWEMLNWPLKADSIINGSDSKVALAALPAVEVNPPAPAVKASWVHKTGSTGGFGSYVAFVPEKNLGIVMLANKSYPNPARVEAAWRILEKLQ

CCC1C(=O)N2C(C(=O)O)=C(SCCNC(C)=O)CC12 (single isomer, unassigned) [Antibiotic PS-5]
Therapeutic effect in infected mice [1]: marked therapeutic effect
Synergism with penicillin G or cephaloridine [2]: synergism between the antibiotic PS-5 and penicillin G or cephaloridine
Deaths after intraperitoneal administration [3]: does not provoke any dead

CCC1C(=O)N2C(C(=O)OC(c3ccccc3)(c3ccccc3)c3ccccc3)=C(SCCNC(C)=O)CC12 (single isomer, unassigned) [Trityl PS-5]
Deaths after intraperitoneal administration ([3]; listed as trityl ester of the antibiotic PS-5, 500 mg/kg): did not provoke any dead
Deaths after intraperitoneal administration ([3]; listed as trityl ester, 500 mg/kg): does not provoke any dead
50% curative dose ([4]; male ddy mice, Staphylococcus aureus Smith, subcutaneous, in Comamonas-cephaloridine units): 27,540 CCU/kg
Therapeutic effect in infected mice ([4]; mice infected with a pathogenic Gram-positive bacteria): marked therapeutic effect
ED50 ([4]; sc, male ddy mice infected i.p. with 5×10^3 cells/mouse Staphylococcus aureus Smith, subcutaneously injected just after infection, read-out: 50% curative dose): 2.55 mg/kg
MIC ([5]; Proteus mirabilis P-6, read-out: MIC): 21.5 µg/mL (≈ 39.8 µM)
MIC ([6]; Alcaligenes faecalis B-326, read-out: MIC): 1.25 µg/mL (≈ 2.31 µM)
MIC ([7]; Staphylococcus aureus FDA 209p, read-out: MIC): 0.17 µg/mL (≈ 0.314 µM)
MIC ([8]; Staphylococcus aureus Smith, read-out: MIC): 0.27 µg/mL (≈ 0.499 µM)
MIC ([9]; Streptococcus pyogenes NY-5, read-out: MIC): 0.17 µg/mL (≈ 0.314 µM)
MIC ([10]; Enterobacter sp. E-8, read-out: MIC): 10 µg/mL (≈ 18.5 µM)
MIC ([11]; Proteus rettgeri P-7, read-out: MIC): 10 µg/mL (≈ 18.5 µM)
MIC ([12]; Diplococcus pneumoniae Type III, read-out: MIC): 0.08 µg/mL (≈ 0.148 µM)
MIC ([13]; Proteus vulgaris P-5, read-out: MIC): 21.5 µg/mL (≈ 39.8 µM)
MIC [14]: 5.37 µg/mL (≈ 9.93 µM)
MIC ([15]; Klebsiella pneumoniae K-2, read-out: MIC): 10.7 µg/mL (≈ 19.8 µM)
MIC ([16]; Citrobacter freundii E-9, read-out: MIC): 5 µg/mL (≈ 9.25 µM)
MIC ([17]; Pseudomonas aeruginosa P-1, read-out: MIC): > 43 µg/mL
MIC ([18]; Sarcina lutea S-19, read-out: MIC): 0.27 µg/mL (≈ 0.499 µM)
IC50 [19]: 1480 nM

O=C(Cc1cccs1)N[C@@H]1C(=O)N2C(C(=O)[O-])=C(C[n+]3ccccc3)CS[C@H]12 [Cephaloridine, cephaloridine]
MIC ([5]; Proteus mirabilis): 10 µg/mL (≈ 24.1 µM)
MIC ([6]; Alcaligenes faecalis): 6.25 µg/mL (≈ 15 µM)
MIC ([7]; Staphylococcus aureus): 0.04 µg/mL (≈ 0.0963 µM)
MIC ([8]; Staphylococcus aureus): 0.04 µg/mL (≈ 0.0963 µM)
MIC ([9]; Streptococcus pyogenes): 0.01 µg/mL (≈ 0.0241 µM)
MIC ([10]; Enterobacter): > 100 µg/mL
MIC [11]: 50 µg/mL (≈ 120 µM)
MIC [12]: 0.01 µg/mL (≈ 0.0241 µM)
MIC ([13]; Proteus vulgaris): > 20 µg/mL
MIC [14]: 2.5 µg/mL (≈ 6.02 µM)
MIC ([15]; Klebsiella pneumoniae): 10 µg/mL (≈ 24.1 µM)
MIC ([16]; Citrobacter freundii): > 100 µg/mL
MIC ([17]; Pseudomonas aeruginosa): > 20 µg/mL
MIC [18]: 0.05 µg/mL (≈ 0.12 µM)
